Our source for the TGI and GI50 values is PubChem BioAssay (NCI).

Test systems include COLO 205 colon; CCRF-CEM leukemia; RXF 393 renal; SR leukemia; NCI-H522 lung; SK-MEL-2 melanoma; MALME-3M melanoma; NCI-H226 lung; HOP-62 NSCLC; HCC-2998 colon.
What all share (assay): NCI anticancer screen, dose series, 48 h

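Cells were grown in 96-well plates and exposed to each compound for 48 hours at five concentrations; endpoints were interpolated linearly between bracketing concentrations, or set to the highest concentration if not reached. The concentration for 50% growth inhibition is given as GI50. TGI marks complete inhibition of growth.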

As for `Nc1nc2nc[nH]c2c(=O)[nH]1`, the TGI with COLO 205 colon, in the assay on CCRF-CEM leukemia, with RXF 393 renal, in the assay on SR leukemia, with NCI-H522 lung and in the assay on SK-MEL-2 melanoma was more than 100 µM in each case. The TGI with MALME-3M melanoma, in the assay on NCI-H226 lung and in the assay with HOP-62 NSCLC was more than 100 µM throughout.

For `Nc1ccn(C2CC(CO)C(O)C2O)c(=O)n1` (centres undefined), the TGI in the assay on COLO 205 colon, in the assay with RXF 393 renal, in the assay with SR leukemia, in the assay with NCI-H522 lung, in the assay with SK-MEL-2 melanoma and with MALME-3M melanoma was more than 57.7 µM throughout. Further, the TGI in the assay with HCC-2998 colon, with NCI-H226 lung and in the assay on HOP-62 NSCLC was more than 57.7 µM throughout.

On to `CC1OC(OCC2COC(O)(Oc3c(-c4ccc(O)c(O)c4)oc4cc(O)cc(O)c4c3=O)C(O)C2O)C(O)C(O)C1O` (centres undefined), for which the TGI in the assay on COLO 205 colon, in the assay on CCRF-CEM leukemia, in the assay with RXF 393 renal, in the assay on SR leukemia, in the assay with MALME-3M melanoma and in the assay with HCC-2998 colon was more than 100 µM each time. The TGI in the assay with NCI-H226 lung and with HOP-62 NSCLC was more than 100 µM each time.

Consider `Cc1ccc(Cl)c(NC(=O)C(=O)C(C(=O)c2ccncc2)C2OC(=O)c3ccccc32)c1` (centres undefined), for which the TGI in the assay with COLO 205 colon, in the assay on CCRF-CEM leukemia, with RXF 393 renal, in the assay with SR leukemia, in the assay with NCI-H522 lung and in the assay with MALME-3M melanoma was more than 100 µM each time. The TGI in the assay with HCC-2998 colon, in the assay on NCI-H226 lung and in the assay with HOP-62 NSCLC was more than 100 µM each time.

As to `c1ccc(CN(Cn2cccn2)Cn2cccn2)nc1`, the TGI in the assay with COLO 205 colon, with CCRF-CEM leukemia, with RXF 393 renal, in the assay with SR leukemia, in the assay on NCI-H522 lung and in the assay on SK-MEL-2 melanoma was more than 100 µM in each case. The compound further returned a TGI in the assay with HOP-62 NSCLC of more than 100 µM.

Regarding `COc1cc(C(=O)c2cc3c(cc2C)OCO3)cc(OC)c1OC`, the GI50 is 0.0584 µM with COLO 205 colon; 0.0434 µM in the assay with CCRF-CEM leukemia; 0.0515 µM in the assay with RXF 393 renal; 0.0417 µM in the assay with SR leukemia; 0.26 µM in the assay with NCI-H522 lung; 0.734 µM with SK-MEL-2 melanoma. In addition, the GI50 in the assay on HCC-2998 colon is 0.218 µM; in the assay on NCI-H226 lung, 0.554 µM; in the assay on HOP-62 NSCLC, 0.17 µM. Also, the TGI with COLO 205 colon is 0.413 µM; with CCRF-CEM leukemia, more than 100 µM; with RXF 393 renal, more than 100 µM; in the assay with SR leukemia, more than 100 µM; in the assay on NCI-H522 lung, 3.9 µM; in the assay on SK-MEL-2 melanoma it was more than 100 µM. For the same compound, the TGI in the assay on HCC-2998 colon, in the assay on NCI-H226 lung and in the assay on HOP-62 NSCLC was more than 100 µM each time.

As for `COc1cc2nc(Nc3cccc(F)c3)nc(Nc3cc(C)[nH]n3)c2cc1OC`, the GI50 was 2.25 µM with COLO 205 colon; 1.11 µM with CCRF-CEM leukemia; 1.81 µM in the assay with RXF 393 renal; 2.27 µM in the assay with SR leukemia; 1.92 µM with NCI-H522 lung; 2.1 µM in the assay with SK-MEL-2 melanoma. The GI50 with MALME-3M melanoma was 1.86 µM; in the assay on HCC-2998 colon it was 1.8 µM; in the assay with HOP-62 NSCLC it was 1.87 µM. Further, the TGI is 4.99 µM with COLO 205 colon; more than 100 µM with CCRF-CEM leukemia; 3.22 µM in the assay on RXF 393 renal; 8.36 µM in the assay on SR leukemia; 4.94 µM with NCI-H522 lung; 4.08 µM in the assay with SK-MEL-2 melanoma. The TGI was 3.55 µM with MALME-3M melanoma, 3.28 µM in the assay with HCC-2998 colon and 3.62 µM with HOP-62 NSCLC.

Turning to `Nc1c(C(=O)Nc2ccccc2Cl)sc2nc3c(cc12)CCCCCC3`, the GI50 is 8.52 µM with COLO 205 colon; 1.85 µM in the assay with RXF 393 renal; 2.18 µM in the assay on SR leukemia; 13.6 µM in the assay with NCI-H522 lung; 2.77 µM in the assay on SK-MEL-2 melanoma; 2.62 µM in the assay with MALME-3M melanoma. For the same compound, the GI50 is 7.06 µM in the assay with HCC-2998 colon and 3.76 µM in the assay on NCI-H226 lung. Also, the TGI with COLO 205 colon was more than 100 µM; with RXF 393 renal, 3.98 µM; in the assay with SR leukemia it was more than 100 µM; with NCI-H522 lung, 91.1 µM; in the assay with SK-MEL-2 melanoma, 23.1 µM; in the assay on MALME-3M melanoma it was 9.33 µM. Moreover, the TGI was more than 100 µM with HCC-2998 colon and 24.5 µM in the assay on NCI-H226 lung.

Consider `CCOC(=O)/C(=C/c1ccc(C#N)cc1)N(CC)CC`, for which the TGI with COLO 205 colon, with CCRF-CEM leukemia, with SR leukemia, in the assay on NCI-H522 lung, in the assay with SK-MEL-2 melanoma and in the assay with MALME-3M melanoma was more than 100 µM in each case. For the same compound, the TGI in the assay with HCC-2998 colon, in the assay on NCI-H226 lung and in the assay with HOP-62 NSCLC was more than 100 µM in each case.

For `CC1=C(C(=O)Nc2ccc(Cl)c(Cl)c2)C(c2ccco2)C(C(=O)Nc2ccc(Cl)c(Cl)c2)=C(C)N1`, the TGI in the assay on COLO 205 colon was determined as 25.7 µM; with CCRF-CEM leukemia, 27.7 µM; in the assay with SR leukemia it was 32 µM; in the assay with NCI-H522 lung, 26.7 µM; in the assay with SK-MEL-2 melanoma, 26.3 µM; in the assay with MALME-3M melanoma, 29.5 µM. In addition, the TGI with HCC-2998 colon was 23.9 µM; in the assay on NCI-H226 lung, 25.6 µM; with HOP-62 NSCLC, 27.6 µM.

On to `O=C(/C=C\c1ccc(Cl)cc1Cl)c1cccs1`, for which the TGI in the assay with COLO 205 colon was 30.7 µM; in the assay with CCRF-CEM leukemia it was 73.6 µM; in the assay on RXF 393 renal, 44.3 µM; in the assay with SR leukemia, more than 100 µM; in the assay with NCI-H522 lung, 50.3 µM; in the assay with SK-MEL-2 melanoma it was 35.5 µM. The TGI came out at 42.9 µM in the assay on MALME-3M melanoma, 51.3 µM in the assay with NCI-H226 lung and 56.2 µM in the assay with HOP-62 NSCLC.

Turning to `Cc1[nH]c(=O)[nH]c(=O)c1CO`, the GI50 with COLO 205 colon, in the assay on CCRF-CEM leukemia, in the assay with RXF 393 renal, in the assay with SR leukemia, in the assay on NCI-H522 lung and with SK-MEL-2 melanoma was more than 100 µM throughout. The GI50 in the assay with MALME-3M melanoma, with HCC-2998 colon and in the assay on HOP-62 NSCLC was more than 100 µM throughout. Also, the TGI in the assay on COLO 205 colon, with CCRF-CEM leukemia, in the assay on RXF 393 renal, in the assay with SR leukemia, in the assay on NCI-H522 lung and in the assay with SK-MEL-2 melanoma was more than 100 µM in each case. The TGI in the assay with MALME-3M melanoma, with HCC-2998 colon and with HOP-62 NSCLC was more than 100 µM in each case.

`COc1ccc(C(c2c(O)c3ccccc3n(C)c2=O)c2c(O)c3ccccc3n(C)c2=O)cc1`: the TGI with COLO 205 colon was more than 100 µM; in the assay on RXF 393 renal, more than 100 µM; in the assay on SR leukemia it was more than 100 µM; with NCI-H522 lung, 60 µM; with SK-MEL-2 melanoma, more than 100 µM; in the assay with MALME-3M melanoma, more than 100 µM. The TGI in the assay with HCC-2998 colon was more than 100 µM; with NCI-H226 lung, 69.5 µM.

With `NCc1nnn(Cc2ccccc2)c1N`, the TGI in the assay on COLO 205 colon, in the assay on CCRF-CEM leukemia, in the assay on RXF 393 renal, in the assay with SR leukemia, with NCI-H522 lung and in the assay on SK-MEL-2 melanoma was more than 100 µM in each case. Moreover, the TGI with MALME-3M melanoma, with NCI-H226 lung and with HOP-62 NSCLC was more than 100 µM throughout.

With `COc1ccc(/C=C/c2n[nH]c3ccc(N4CCOC4=O)cc23)cc1`, the GI50 in the assay on COLO 205 colon was 0.501 µM; with RXF 393 renal, 1.87 µM; in the assay with SR leukemia it was 0.461 µM; in the assay with NCI-H522 lung it was 1.87 µM; in the assay with SK-MEL-2 melanoma, 2.53 µM; with MALME-3M melanoma it was 4.3 µM. Moreover, the GI50 is 2.3 µM in the assay with HCC-2998 colon, 2.44 µM with NCI-H226 lung and 2.14 µM in the assay with HOP-62 NSCLC. In addition, the TGI turned out to be 3.05 µM in the assay with COLO 205 colon; 3.8 µM with RXF 393 renal; 3.03 µM in the assay on SR leukemia; 14.5 µM in the assay on NCI-H522 lung; 6.21 µM in the assay with SK-MEL-2 melanoma; 8.66 µM in the assay with MALME-3M melanoma. Further, the TGI stood at 7.17 µM with HCC-2998 colon, 15.4 µM in the assay with NCI-H226 lung and 13 µM with HOP-62 NSCLC.

For the compound `O=c1c2ccccc2c2nc3ccccc3nc2n1C1CCCCC1`, the TGI in the assay on COLO 205 colon, with RXF 393 renal, with SR leukemia, with NCI-H522 lung, with SK-MEL-2 melanoma and with MALME-3M melanoma was more than 100 µM in each case. Moreover, the TGI in the assay on HCC-2998 colon and in the assay on NCI-H226 lung was more than 100 µM throughout.

`CC1=C(C(=O)NCc2ccccc2)C(c2ccccc2[N+](=O)[O-])C(C(=O)NCc2ccccc2)=C(C)N1`: the TGI in the assay with COLO 205 colon was 33.8 µM; in the assay on CCRF-CEM leukemia, 44.7 µM; with RXF 393 renal, 23.4 µM; in the assay with SR leukemia, 35.8 µM; with MALME-3M melanoma, 27 µM; in the assay with HCC-2998 colon, 31.2 µM. The figures for the TGI in the assay with NCI-H226 lung and with HOP-62 NSCLC were 30.4 µM and 35.1 µM, respectively.

On to `CC(C)=CC(=O)Cc1nc2cc(C)c(C)cc2[nH]c1=O`, for which the TGI in the assay with COLO 205 colon, in the assay on CCRF-CEM leukemia, with RXF 393 renal, in the assay with SR leukemia, in the assay with SK-MEL-2 melanoma and with MALME-3M melanoma was more than 100 µM throughout. Also, the TGI in the assay with HCC-2998 colon, in the assay on NCI-H226 lung and in the assay with HOP-62 NSCLC was more than 100 µM throughout.
